# Key:
# [1] = tested on: Pyrenophora [syn. Drechslera] teres; assay: Activity against net blotch of barley caused by Pyrenophora teres, 1 day protective application (Pymte P1), greenhouse; type: in vivo, Pyrenophora teres on barley; conditions: Comparative Example 2, Table 10, barley seedlings, 6 days, untreated 90
# Method: (§1) The active compounds were prepared separately or jointly as a stock solution comprising 25 mg of active compound which was made up to 10 ml using a mixture of acetone and/or DMSO and the emulsifier Wettol EM 31 (wetting agent having emulsifying and dispersing action based on ethoxylated alkylphenols) in a volume ratio of solvent/emulsifier of 99:1. The mixture was then made up to 100 ml with water. This stock solution was diluted with the solvent/emulsifier/water mixture described to give the concentration of active compounds stated below.
# Leaves of potted barley seedlings were sprayed to runoff point with an aqueous suspension having the active compound concentration stated below. 24 hours after the spray coating had dried on, the test plants were inoculated with an aqueous spore suspension of Pyrenophora [syn. Drechslera] teres, the net blotch pathogen. The test plants were then placed in a greenhouse at temperatures between 20 and 24° C. and at 95 to 100% relative atmospheric humidity. After 6 days, the extent of the development of the disease was determined visually in % infection of the entire leaf area.
# Sphaerotheca fuliginea = assay: Activity against mildew on cucumber leaves caused by Sphaerotheca fuliginea, protective application (Sphrfu P1), greenhouse; type: in vivo; conditions: Comparative Example 1, Table 9, cucumber seedlings, 7 days, untreated 90
# Method: as §1
# Leaves of potted cucumber seedlings were, at the cotyledon stage, sprayed to runoff point with an aqueous suspension having the active compound concentration stated below. 20 hours after the spray coating had dried on, the plants were inoculated with an aqueous spore suspension of mildew of cucumber (Sphaerotheca fuliginea). The plants were then cultivated in a greenhouse at temperatures between 20 and 24° C. and 60 to 80% relative atmospheric humidity for 7 days. The extent of the mildew development was then determined visually in % infection of the cotyledon area.
SMILES,Infection in % at 4 ppm for Pyrnte P1 [1] [%],Infection in % at 63 ppm for Sphrfu P1 (Sphaerotheca fuliginea) [%]
Fc1cc(F)c([C@@]2(Cn3cncn3)O[C@@H]2c2ccccc2Cl)cc1F (racemic) [Compound 8.6],40,–
Cc1ccccc1[C@H]1O[C@]1(Cn1cncn1)c1cc(F)c(F)cc1F (racemic) [Compound 8.7],–,0
Cc1ccccc1[C@H]1O[C@]1(Cn1cncn1)c1ccc(F)cc1F [B 255 from EP-A 0 421 125],–,90
Fc1ccc([C@@]2(Cn3cncn3)O[C@@H]2c2ccccc2Cl)cc1 [Comp. 8 of EP-A 0 196 038],90,–

# — patent US20120225777A1, “Azolylmethyloxiranes, Their Use for Controlling Phytopathogenic Fungi and Compositions Comprising Them” (BASF SE, priority 2006, published 2012)
